# Measurements taken from patent publication US20220160712A1, “METHODS OF TREATING RHEUMATOID ARTHRITIS AND FOR PREDICTING THE RESPONSE TO METHOTREXATE” (CHAN ZUCKERBERG BIOHUB, INC., priority 2020, published 2022).
# Key:
# [1] = test system: B. theta and C. asparagiforme; test: Untargeted metabolomics of in vitro cultures; format: cell-based, Bacteroides thetaiotaomicron; Clostridium asparagiforme
# Procedure: As described in the in vitro bacterial growth studies, 48-hour overnight cultures were grown in an anaerobic chamber in liquid BHI+for the following isolates: Bacteroidetes thetaiotaomicron and Clostridium asparagiforme. Each subculture was diluted down to an OD600 of 0.08-0.1, which was then further diluted 100-fold, and then used to inoculate a 96-well 2-ml deep well plate with 100 μg/ml MTX (n=6 replicates per isolate) (Sigma, Cat #M9929) or DMSO (n=2 replicates per isolate). After 24 hours, aliquots were removed, centrifuged on a tabletop centrifuge at 4° C. for 5 minutes at ˜2000 rcf, and supernatant was prepared for extraction and untargeted LC-MS as described.
# Extraction was done in 96 well plates. In brief, 60 μL of the supernatant from the 96 well culture plate was added to 120 μL of pre-cooled methanol/acetonitrile (1:1, v/v) in a non-sterile 96 well plate. The samples were then incubated at −20° C. for 1 hour. After incubation, samples were mixed at 4° C. at 650 rpm using small block tube shaker. The plates were then centrifuged at 3000 rpm for 10 minutes. After centrifugation, using multi-channel pipette, 80 μL of supernatant from each well was transferred to non-sterile 96 well polypropylene plate and then sealed with pre-slit silicone mat. A 1:1:1 mix of LC-MS grade H2O, LC-MS grade acetonitrile and LC-MS grade methanol was used as blank.
# Samples (5 μl) were separated by hydrophilic interaction chromatography HPLC using a Vanquish UHPLC system (Thermo Fisher Scientific, Waltham, MA) with a Waters (Milford, MA) Acquity UPLC BEH Amide Column (2.1×100 mm×1.7 μm particle size) maintained at 65° C. and a 17 minute gradient, at a flow rate of 400 μl/min. […]
# The raw data were converted into mzML format using ProteoWizard v3.0. Converted HILIC files were then analyzed using MS-DIAL v4.16 for deconvolution, peak detection, alignment, and identification (Parameters file can be provided upon request). […]
# [2] = Targeted LC-MS for MTX in RA donor stool samples used for fecal transplant; parameters: species or system human; details: limit of quantification 100 nM
# [3] = MTX 100 μg/ml, 24 hours, padj<0.01, two-factor ANOVA with BH correction
structure (smiles),measurement,setting,value
"CN(Cc1cnc2nc(N)nc(N)c2n1)c1ccc(C(=O)N[C@@H](CCC(=O)O)C(=O)O)cc1 [MTX, methotrexate]","levels of AMP, adenine, hypoxanthine and guanine relative to vehicle control","[1]; C. asparagiforme, 24 hours of treatment, AMP decreased, the rest increased, Wilcoxon rank sum",these differences were not statistically significant
same,number of metabolic features that changed similarly in the two isolates,[1]; [3],418
same,number of metabolic features that differed by species,[1]; [3],220
same,MTX in pre-MTX and post-MTX stool samples from RA donors,[2],not detected
